Laboratory results taken from US20130144250A1, “IMPLANTABLE DRUG DELIVERY COMPOSITIONS AND METHODS OF TREATMENT THEREOF” (Endo Pharmaceuticals Solutions Inc., priority 2011, published 2013).
≈ marks a conversion by molar mass, not a printed value. Counter-ions that a name gives are not always drawn. Like-named read-outs stand apart in the source and are kept apart here.

How the values were obtained:
[1] = In vitro elution of the API from implants in an elution bath of 0.9% saline at 37° C., exchanges analyzed by HPLC; assay type: physicochemical
Method: The testing method set forth in the examples to determine the elution rates for the respective actives included placing the implants in an elution bath consisting of 50 mL 0.9% saline at 37° C. Weekly exchanges of the elution media were analyzed by HPLC for the durations given.
A drug implant was manufactured as described in Example 1 using an aliphatic, polyether-based polyurethane (TECOFLEX® EG-93A polyurethane) as the tubing material. […] Nine pellets of the anastrozole blend were then placed inside the tubing. A total of about 370 mg anastrozole per implant was used. The implants were sterilized by gamma irradiation and placed in an elution bath of 0.9% saline (50 mL) at 37° C. Regular exchanges of the elution media were analyzed by HPLC for over 400 days.
Implants D and E were then tested for in vitro elution, as described in Example 2.
The implants were sterilized by gamma irradiation and placed in an elution bath of 0.9% saline (200 mL) at 37° C.
Drug containing pellets were manufactured as described in Example 1, and the polymeric sorption enhancer croscarmellose sodium was added to the drug blend. Nine pellets of a drug blend with various concentrations of anastrozole and croscarmellose, with the remainder being 2% stearic acid as lubricant, were placed into a polyurethane tubing (TECOFLEX® EG-93A). The implants were sterilized by gamma irradiation and placed in an elution batch consisting of 50 mL saline at 37° C. Weekly exchanges of the elution media were analyzed by HPLC for 13 weeks.
Drug containing pellets were manufactured as described in Example 1, and the polymeric sorption enhancer croscarmellose sodium was added to the drug blend. […] The implants were sterilized by gamma irradiation and placed in an elution batch consisting of 500 mL saline at 37° C. Weekly exchanges of the elution media were analyzed by HPLC for 11 weeks.
A total of about 250 mg fingolimod were loaded into the implants with 10% croscarmellose and 2% stearic acid. The implants were sterilized by gamma irradiation and placed in an elution batch consisting of 800 mL 0.9% saline at 37° C. Weekly exchanges of the elution media were analyzed by HPLC for up to 30 weeks.
The drug implants were manufactured as described in Example 26 using TECOFLEX® EG-80A, TECOFLEX® EG-85A, TECOFLEX® EG-93A, TECOFLEX® EG-100A, TECOFLEX® EG-65D, or TECOFLEX® EG-68D polyurethanes as the tubing materials and varenicline tartrate as the API. […] A total of about 350 mg varenicline tartrate were loaded into each implant with 10% croscarmellose and 2% stearic acid. The implants were sterilized by gamma irradiation and placed in an elution batch consisting of 200 mL 0.9% saline at 37° C. Weekly exchanges of the elution media were analyzed by HPLC for up to 11 weeks.
The drug implant was manufactured as described in Example 26 using TECOFLEX® EG-93A polyurethane as the tubing material and varenicline free base as the API. […] A total of about is 250 mg varenicline free base were loaded into the implant with 10% croscarmellose and 2% stearic acid. The implant was sterilized by gamma irradiation and placed in an elution batch consisting of 100 mL 0.9% saline at 37° C.

[2] = cited from earlier work
[3] = human, in vivo, po
estrogen formation [4] = assay: animal or person; settings: Homo sapiens, read-out: EC50 (concentration achieving half-maximal response)
estrogen formation [5] = settings: indirect effect model with sigmoidal inhibitory drug effect

## CCN(CC)CC#CCOC(=O)C(O)(c1ccccc1)C1CCCCC1 (stereo not drawn) [Oxybutynin HCl, oxybutynin hydrochloride]
[1]; TECOFLEX EG-80A and EG-85A implants, oxybutynin HCl
  release rates from implants: suitable release rates
[1]; TECOFLEX EG-93A, TECOPHILIC HP-60D-05 and HP-60D-10 implants, oxybutynin HCl
  elution from implants: failed to elute

## CCN(CC)CC#CCOC(=O)C(O)(c1ccccc1)C1CCCCC1 (stereo not drawn) [oxybutynin free base, oxybutynin]
[2]; oral dosage
  Bioavailability: ~6%
[1]; TECOFLEX EG-80A and EG-85A implants, oxybutynin free base
  elution from implants: essentially streamed out
[1]; TECOFLEX EG-93A, TECOPHILIC HP-60D-05 and HP-60D-10 implants, oxybutynin free base
  release rates from implants: suitable and controllable release rates

## C#CCN(C)[C@H](C)Cc1ccccc1 [Selegiline HCl, selegiline HCl]
[2]; buccal 1.25 mg/day
  Bioavailability: 90%

## Cc1nc2n(c(=O)c1CCN1CCC(c3noc4cc(F)ccc34)CC1)CCCC2 [Risperidone, 4-[2-[4-(6-fluorobenzo[d]isoxazol-3-yl)-1-piperidyl]ethyl]-3-methyl-2,6-diazabicyclo[4.4.0]deca-1,3-dien-5-one]
[1]; TECOFLEX EG-80A implant, 2% croscarmellose, 500 mL saline, week 2
  elution rate: about 1,450 μg/day
[1]; TECOFLEX EG-80A implant, 2% croscarmellose, 500 mL saline, week 11
  elution rate: about 850 μg/day
[1]; TECOFLEX EG-80A implant, 12% croscarmellose, 500 mL saline, week 2
  elution rate: about 1,800 μg/day
[1]; TECOFLEX EG-80A implant, 12% croscarmellose, 500 mL saline, week 11
  elution rate: about 1,400 μg/day
[1]; TECOFLEX EG-80A, 10% croscarmellose vs none, 200 mL saline
  daily elution rates with a sorption enhancer in comparison to an implant without: significantly higher
[1]; TECOFLEX EG-80A, 10% polyethylene oxide, sodium polyacrylate or chondroitin sulfate
  drug release compared to no added sorption enhancer: increased the drug release
[1]; TECOFLEX EG-80A, 10% sodium carboxymethyl cellulose
  drug release compared to no added sorption enhancer: increased the drug release
[1]; TECOFLEX EG-80A, even the smallest percentage of croscarmellose sodium
  drug release compared to no added sorption enhancer: increased the drug release
[3]
  time of peak active moiety plasma concentration following administration: ≤ 3 h

## O=C1CCc2ccc(OCCCCN3CCN(c4cccc(Cl)c4Cl)CC3)cc2N1 [Aripiprazole, aripiprazole]
[2]; oral dosage
  Bioavailability: 85%

## CCCN(CCc1cccs1)[C@H]1CCc2c(O)cccc2C1 [Rotigotine, rotigotine]
[2]; transdermal
  Bioavailability: 35%

## CC(C)(C#N)c1cc(Cn2cncn2)cc(C(C)(C)C#N)c1 [Anastrozole, anastrozole]
[2]; oral dosage
  Bioavailability: 80-85%
Estrogen formation [4]
  EC50: 0.000565 ng/mL (≈ 0.00193 nM)
[1]; FIG. 4, aliphatic polyether-based urethane implant (Example 2)
  duration of pseudo-zero order elution rate: over 400 days
[1]; FIG. 8, polyether-based polyurethane excipient
  duration of pseudo-zero order elution: over one year
[1]; FIG. 10
  elution profile, 9 pellets versus 7 pellets: higher elution profile
[1]; FIG. 13, 10% sorption enhancer (croscarmellose)
  duration of pseudo-zero order elution rate: over 80 days
[1]; FIG. 14, 10% sodium carboxymethyl starch
  duration of pseudo-zero order elution rate: over 80 days
[1]; FIG. 14, 10% sodium starch glycolate
  duration of pseudo-zero order elution rate: over 80 days
[1]; TECOFLEX EG-93A
  drug release rate on increasing sodium polyacrylate from 10% to 14% of the drug blend: increased the drug release rate
[1]; TECOFLEX EG-93A implant, 2% croscarmellose, 50 mL saline
  elution rate: about 250 μg/day
[1]; TECOFLEX EG-93A implant, 10% croscarmellose, 50 mL saline
  elution rate: about 850 μg/day
[1]; TECOFLEX EG-93A, about 125 mg to about 540 mg per implant, over 70 days
  release with increased load into the implant: linear release
[1]; TECOFLEX EG-93A, even the smallest percentage of croscarmellose sodium
  drug release compared to no added sorption enhancer: increased the drug release
[1]; TECOFLEX EG-93A, sodium polyacrylate
  drug release compared to no added sorption enhancer: increased the drug release
Estrogen formation [5]
  Hill coefficient of the concentration response curve on estrogen: 0.455

## varenicline tartrate
[1]; TECOFLEX EG-80A and EG-85A implants, after a long incubation phase
  drug release from implants: released but without any control over the release
[1]; TECOFLEX EG-93A, EG-100A, EG-65D and EG-68D implants, 200 mL saline
  drug release from implants: no drug was released

## c1cnc2cc3c(cc2n1)[C@@H]1CNC[C@H]3C1 [varenicline free base, varenicline]
[1]; TECOFLEX EG-93A implant, 100 mL saline
  release rate: about 1,750 μg/day
[1]; free base vs HCl or tartrate salt
  elution rates in vitro in comparison to the salt form: higher and more stable

## Nc1nc2ncc(CNc3ccc(C(=O)N[C@@H](CCC(=O)O)C(=O)O)cc3)nc2c(=O)[nH]1 [Folic acid, folic acid]
[2]; oral dosage
  Bioavailability: 60%

## N#Cc1ccc(C(c2ccc(C#N)cc2)n2cncn2)cc1 [Letrozole, letrozole]
[2]; oral dosage
  Bioavailability: 99%

## C[C@]12C=CC(=O)N[C@@H]1CC[C@@H]1[C@@H]2CC[C@]2(C)[C@@H](C(=O)Nc3cc(C(F)(F)F)ccc3C(F)(F)F)CC[C@@H]12 [Dutasteride, dutasteride]
[2]; oral dosage
  Bioavailability: ~60%

## CCN(C)C(=O)Oc1cccc([C@H](C)N(C)C)c1 [Rivastigmine Tartrate, rivastigmine tartrate]
[2]; oral dosage
  Bioavailability: 35%

## Cc1nc2n(c(=O)c1CCN1CCC(c3noc4cc(F)ccc34)CC1)CCCC2O (stereo not drawn) [Paliperidone, paliperidone]
[2]; oral dosage
  Bioavailability: 28%

## Cc1ccc(O)c([C@H](CCN(C(C)C)C(C)C)c2ccccc2)c1 [Tolterodine Tartrate, tolterodine tartrate]
[2]; oral dosage
  Bioavailability: ~75%
